Measurements published in US9510592B2, “Pesticidal compositions and processes related thereto” (Dow AgroSciences LLC, priority 2012, dated 2016).
Where two headings read alike, the source gives them in different places.

How the values were obtained:
Assay type in all cases: in vivo
[1] = system: Green Peach Aphid (Myzus persicae); assay: Bioassay on Green Peach Aphid (GPA), foliar spray on cabbage seedlings; conditions: 72 h, corrected % control (Abbott), 200 ppm spray on cabbage seedlings, three days
Experimental: Certain molecules disclosed in this document were tested against GPA using procedures described in the following example. In the reporting of the results, the “GPA Rating Table” was used (See Table Section). Cabbage seedlings grown in 3-inch pots, with 2-3 small (3-5 cm) true leaves, were used as test substrate. The seedlings were infested with 20-50 GPA (wingless adult and nymph stages) one day prior to chemical application. Four pots with individual seedlings were used for each treatment. Test compounds (2 mg) were dissolved in 2 mL of acetone/MeOH (1:1) solvent, forming stock solutions of 1000 ppm test compound. The stock solutions were diluted 5× with 0.025% Tween 20 in water to obtain the solution at 200 ppm test compound. A hand-held aspirator-type sprayer was used for spraying a solution to both sides of […] leaves until runoff. Reference plants (solvent check) were sprayed with the diluent only containing 20% by volume of acetone/MeOH (1:1) solvent. Treated plants were held in a holding room for three days at approximately 25° C. and ambient relative humidity (RH) prior to grading. Evaluation was conducted by counting the number of live aphids per plant under a microscope. Percent Control was measured by using Abbott's correction formula (W. S. Abbott, “A Method of Computing the Effectiveness of an Insecticide” J. Econ. Entomol. 18 (1925), pp. 265-267) as follows. Corrected % Control=100*(X−Y)/X • where • X=No. of live aphids on solvent check plants and • Y=No. of live aphids on treated plants The results are indicated in the table entitled “Table 3: Assay Results” (See Table Section).

[2] = system: Beet Armyworm (Spodoptera exigua); assay: Bioassay on Beet Armyworm (BAW), 128-well diet tray assay; conditions: Spodoptera exigua, 168 h, percent mortality of second instar larvae, 50 μg/cm^2 on artificial diet, five to seven days, 25° C., read-out: BAW Rating
How it was run: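 Second-instar larvae (one to five per well) were placed on artificial diet surface-treated with 50 μg/cm^2 compound in acetone-water and held at 25 °C, 14:10 light-dark, for five to seven days. Percent mortality was averaged over eight wells.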

[3] = system: Corn Earworm (Helicoverpa zea); assay: Bioassay on Corn Earworm (CEW), 128-well diet tray assay; conditions: percent mortality of second instar larvae, 50 μg/cm^2 on artificial diet, five to seven days, 25° C., Table 3; for pest or weed control at 50 µg/cm2: Helicoverpa zea, 168 h, read-out: CEW Rating
Experimental: (§1) Certain molecules disclosed in this document were tested against BAW and CEW and CL using procedures described in the following examples. In the reporting of the results, the “BAW & CEW & CL Rating Table” was used (See Table Section).
Bioassays On CEW (Helicoverpa zea)
Bioassays on CEW were conducted using a 128-well diet tray assay. one to five second instar CEW larvae were placed in each well (3 mL) of the diet tray that had been previously filled with 1 mL of artificial diet to which 50 μg/cm^2 of the test compound (dissolved in 50 μL of 90:10 acetone-water mixture) had been applied (to each of eight wells) and then allowed to dry. Trays were covered with a clear self-adhesive cover, and held at 25° C., 14:10 light-dark for five to seven days. Percent mortality was recorded for the larvae in each well; activity in the eight wells was then averaged. The results are indicated in the table entitled “Table 3: Assay Results” (See Table Section).

[4] = system: Cabbage Looper (Trichoplusia ni); assay: Bioassay on Cabbage Looper (CL), 128-well diet tray assay; conditions: percent mortality of second instar larvae, 50 μg/cm^2 on artificial diet, five to seven days, 25° C.; Table 3A
Experimental: as §1
Bioassays on CL (Trichoplusia ni)
Bioassays on CL were conducted using a 128-well diet tray assay. One to five second instar CL larvae were placed in each well (3 mL) of the diet tray that had been previously filled with 1 mL of artificial diet to which 50 μg/cm^2 of the test compound (dissolved in […] of 90:10 acetone-water mixture) had been applied (to each of eight wells) and then allowed to dry. Trays were covered with a clear self-adhesive cover, and held at 25° C., 14:10 light-dark for five to seven days. Percent mortality was recorded for the larvae in each well; activity in the eight wells was then averaged. The results are indicated in the table entitled “Table 3A: Assay Results” (See Table Section).

Row | SMILES | pest or weed control at 200 ppm ([1]; Table 3, read-out: GPA Rating) | pest or weed control at 50 µg/cm2, 50 µg/cm2 ([2]; Table 3) | pest or weed control at 50 µg/cm2 [3] | also measured
1 | Cc1cc(/C=C/C(c2cc(Cl)cc(Cl)c2)C(F)(F)F)ccc1C(=O)N[C@H]1C[S@@+]([O-])C1 (stereo partly drawn) [AC82] | 0 to 80% | 50 to 100% | 50 to 100% | –
2 | Cc1cc(/C=C/C(c2cc(Cl)c(Cl)c(Cl)c2)C(F)(F)F)ccc1C(=O)NC1CS(=O)(=O)C1 (stereo not drawn) [AC25] | – | 50 to 100% | 50 to 100% | –
3 | O=C(CC(F)(F)F)NCc1ccc(/C=C/C(c2cc(Cl)c(F)c(Cl)c2)C(F)(F)F)cc1 (stereo not drawn) [CC16] | 0 to 80% | 50 to 100% | 50 to 100% | –
4 | FC(F)(F)C(/C=C/c1ccc(-n2cncn2)cc1)c1cc(Cl)cc(Cl)c1Cl (stereo not drawn) [DC17] | – | 50 to 100% | 50 to 100% | –
5 | Cc1cc(/C=C/C(c2cc(Cl)cc(Cl)c2)C(F)(F)F)cnc1C(=O)NCc1ccc(Cl)nc1 (stereo not drawn) [AC60] | 0 to 80% | 50 to 100% | 50 to 100% | –
6 | O=C(CC(F)(F)F)NC1CCc2cc(/C=C/C(c3cc(Cl)c(Cl)c(Cl)c3)C(F)(F)F)ccc21 (stereo not drawn) [BC4, (E)-3,3,3-Trifluoro-N-(5-(4,4,4-trifluoro-3-(3,4,5-trichlorophenyl)but-1-enyl)-2,3-dihydro-1H-inden-1-yl)propanamide] | 0 to 80% | 50 to 100% | 50 to 100% | –
7 | FC(F)(F)C(/C=C/c1ccc(-n2cncn2)cc1)c1ccc(Cl)cc1Cl (stereo not drawn) [DC13] | – | 50 to 100% | 50 to 100% | –
8 | O=C(NCc1ccc(/C=C/C(c2cc(Cl)c(Cl)c(Cl)c2)C(F)(F)F)cc1)c1ccnc(Cl)c1 (stereo not drawn) [CC13] | 0 to 80% | 50 to 100% | 50 to 100% | –
9 | O=C(NCCNC(=O)C(F)(F)F)c1ccc(/C=C/C(c2cc(Cl)c(Cl)c(Cl)c2)C(F)(F)F)cc1Br (stereo not drawn) [Compound F33] | – | – | – | pest or weed control at 200 ppm ([1]; Table 3A, read-out: GPA Rating): 0 to 80%; pest or weed control at 50 µg/cm2, 50 µg/cm2 ([2]; Table 3A): 50 to 100%; CL Rating [4]: A (50-100)
10 | N#Cc1cc(/C=C/C(c2cc(Cl)cc(Cl)c2)C(F)(F)F)ccc1-n1cncn1 (stereo not drawn) [DC29] | – | 50 to 100% | 50 to 100% | –
11 | O=C(NCc1ccc(/C=C/C(c2cc(Cl)c(Cl)c(Cl)c2)C(F)(F)F)cc1Cl)Oc1ccccc1Cl (stereo not drawn) [CC40] | – | – | – | CEW Rating [3]: A (50-100)
12 | CNC(=S)NC1CCc2cc(/C=C/C(c3cc(Cl)c(Cl)c(Cl)c3)C(F)(F)F)ccc21 (stereo not drawn) [BC1, (E)-1-Methyl-3-(5-(4,4,4-trifluoro-3-(3,4,5-trichlorophenyl)-but-1-enyl)-2,3-dihydro-1H-inden-1-yl)thiourea] | – | 50 to 100% | 50 to 100% | –
13 | CCc1cc(/C=C/C(c2cc(Cl)c(F)c(Cl)c2)C(F)(F)F)ccc1C(=O)NCc1cccnc1Cl (stereo not drawn) [AC76] | – | 50 to 100% | 50 to 100% | –
14 | N#Cc1cc(/C=C/C(c2ccc(Cl)c(Cl)c2)C(F)(F)F)ccc1-n1cncn1 (stereo not drawn) [DC28] | 0 to 80% | 50 to 100% | 50 to 100% | –
15 | FC(F)(F)C(/C=C/c1ccc(-n2cncn2)cc1)c1cc(Cl)c(Cl)c(Cl)c1 (stereo not drawn) [DC18] | – | 50 to 100% | 50 to 100% | –
16 | Cc1cc(/C=C/C(c2cc(Cl)cc(Cl)c2)C(F)(F)F)ccc1C(=O)NC(C)c1ccc(Cl)nc1 (stereo not drawn) [AC44] | 0 to 80% | 50 to 100% | 50 to 100% | –
